Laboratory results reported in patent US9604899B2, “Bipolar trans carotenoid salts and their uses” (Diffusion Pharmaceuticals LLC, priority 2002, dated 2017).

Key:
[1] = solubility in sodium carbonate-deionized water solution (pH 8.0); assay type: physicochemical; details: pH 8, aqueous buffer, thermodynamic from solid, pH 8.0, room temperature, read-out: solubility in water adjusted to pH 8.0 with very dilute sodium carbonate
Protocol: A BTCS such as TSC dissolves in very dilute sodium carbonate solutions. A dilute, eg 0.00001-0.001M, solution of sodium carbonate can be added, dropwise, to deionized water until the pH is 8.0 (the pH of deionized water is usually 5-6). This only takes a few drops of the very dilute sodium carbonate per, say, 50 mls of deionized water. This sodium carbonate-deionized water solution is capable of completely dissolving a large amount of TSC (around 10 mg/ml)—which is remarkable considering the hydrophobicity of the carotenoid portion of the BTCS.

[2] = dissolution in normal (isotonic) saline and other salt solutions; assay type: physicochemical; details: up to several milligrams per ml added
Protocol: Large volumes (as much as 3 times the estimated blood loss) of isotonic saline (also called normal saline) are infused as a treatment for hemorrhagic shock. The isotonic saline contains 9 g NaCl per liter of water so as not to disturb the ionic strength of the plasma once it is infused into the body. […] About 50% of the TSC dissolves in normal saline no matter how much TSC is added (up to several milligrams per ml), which means that undissolved particles of TSC are still present. […] The actual composition of the stock solution can be verified using UV-visible spectroscopy. This stock solution can be added to normal saline and the TSC remains dissolved.
This method can be used to dissolve a BTCS in other types of sodium chloride solutions, as well as in solutions of other salts such as KCl, Na2SO4, lactate, etc. Several, eg 1-3 mg/ml, can be put into solution in this manner.

[3] = solubility in common organic solvents; assay type: physicochemical; details: chloroform, DMSO, pyridine, methanol, acetone, glacial acetic acid
From the text: Attempts were made to dissolve TSC in order to obtain a ^1H NMR spectrum. […] The TSC produced from this project was characterized by IR, UV, HPLC and elemental analyses. […] UV and HPLC were consistent with authentic TSC.^7 Elemental analyses gave satisfactory values.

[4] = diffusivity of oxygen through aqueous solutions
[5] = test system: hemorrhaged rats; assay: hemorrhagic shock in rats (Roy et al); details: rat, in vivo
Protocol: In Roy et al, Shock 10, 213-7. (1998), hemorrhaged rats (55% blood volume) were given a bolus of trans sodium crocetinate (TSC) after the hemorrhage ended, followed by saline after another 30 minutes. […] Whole-body oxygen consumption increased in the TSC group, reaching 75% of normal resting value after about 15 minutes.

[6] = TSC by inhalation, drug in blood stream; assay type: in vivo, rat; details: rats
Protocol: TSC has been given to rats via an inhalation route. Ten rats were given TSC directly into the lungs. This was done by inserting a tube into the trachea, and nebulizing 0.2 ml of TSC solution (TSC dissolved in dilute sodium carbonate solution) with about 3 to 6 mls of air. For all dosages studied (0.5-2 mg/kg), about 20% of the drug was present in the blood stream within one minute after it was given.

[7] = oral administration of TSC (gavage), drug in blood stream; assay type: in vivo, rat; details: two rats, 15 to 30 minutes after being given
From the text: TSC has been shown, in rats, to be absorbed into the blood stream when administered orally (via a gavage technique). […] The maximum amount absorbed orally actually occurred earlier than that time.

[8] = simulated TSC molecule surrounded with water molecules; cited from earlier work
[9] = test system: hemorrhaged rats; details: cited from earlier work
[10] = test system: rat model of acute hypoxia; details: 10% oxygen air mixture, TSC given after 10 minutes; cited from earlier work
[11] = solubility in water
[12] = stability (aqueous solution, dry form); details: tap, distilled, deionized water
[13] = background statement; cited from earlier work

SMILES	solubility [1] [µg/mL]	fraction of added TSC that dissolves in normal saline [2]	solubility in most common organic solvents [3]	increase of diffusivity of oxygen through aqueous solutions [4]	oxygen consumption of rats undergoing hemorrhagic shock [5]	period the drug was present in the blood stream ([6]; inhalation, 0.8-1.6 mg/kg)	fraction of the drug present in the blood stream ([6]; nebulized into trachea, 0.5-2 mg/kg, within one minute)	fraction of the dosage given present in the blood stream [7] [%]	computational increase in diffusivity [8] [%]	whole-body oxygen consumption ([9]; hemorrhaged rats, after about 15 minutes)	survival ([9]; rats hemorrhaged 55% blood volume, TSC bolus after hemorrhage, saline after 30 minutes)	survival and hemodynamic stability [10]	solubility in deionized water versus normal water [11]	solubility ([11]; water) [µg/mL]	stability of solutions in water [12]	solubility in water [13]
CC(/C=C/C=C(\C)C(=O)[O-])=C\C=C\C=C(C)\C=C\C=C(/C)C(=O)[O-].[Na+].[Na+] [TSC, Trans Sodium Crocetinate]	~10000	About 50%	practically insoluble	about 30%	increase the oxygen consumption	at least two hours	about 20%	1 to 2	~30	75 % of normal resting value	All of the TSC-treated animals lived	all survived with good hemodynamic stability for over two hours	more soluble in deionized water	~10000	only stable if the pH is adjusted so as to make the solution basic	
CC(/C=C/C=C(\C)C(=O)O[C@@H]1O[C@H](CO[C@@H]2O[C@H](CO)[C@@H](O)[C@H](O)[C@H]2O)[C@@H](O)[C@H](O)[C@H]1O)=C\C=C\C=C(C)\C=C\C=C(/C)C(=O)O[C@@H]1O[C@H](CO[C@@H]2O[C@H](CO)[C@@H](O)[C@H](O)[C@H]2O)[C@@H](O)[C@H](O)[C@H]1O [crocin]																significant solubility in water
CC(/C=C/C=C(\C)C(=O)O)=C\C=C\C=C(C)\C=C\C=C(/C)C(=O)O [crocetin]																only sparingly soluble in water
